Test [1] has as its system C. albicans (clinical isolate). Description: Trial of melanocortin peptides on C. albicans viability (colony formation). It counts as cell-based. Particulars: for reduction of C. albicans CFU at higher concentrations: up to 10^-4M; for C. albicans colony forming units (CFU): peptide 10^−15 to 10^−4M, 2 hours at 37° C., compared to controls. The procedure: S. aureus (ATCC 29213) and C. albicans (clinical isolate) were obtained from the collection of the Department of Microbiology, Ospedale Maggiore di Milano. C. albicans were maintained on Sabouraud'[…] periodically transferred to Sabouraud's agar plates and incubated for 48 hours at 28° C. To prepare stationary growth phase yeast, a colony was taken from the agar plate and transferred into 30 ml Sabouraud-dextrose broth and incubated for 72 hours at 32° C. Cells were centrifuged at 1000×g for 10 minutes and the pellet was washed twice with distilled water. Cells were counted and suspended in Hank's balanced salt solution (“HBSS”) to the desired concentration. […] Cells were then washed in cold distilled water and diluted with HBSS to a concentration of 100 organisms/ml. One ml aliquots were dispensed on blood agar plates and incubated for 48 hours at 37° C. Organism viability was estimated from the number of colonies formed. […] There were at least six replicates for each concentration of peptide. […] The reaction was stopped after 3 minutes by the addition of ice cold ethanol. cAMP was measured in duplicate using a commercial enzyme immunoassay (EIA) kit (Amersham, United Kingdom) after extraction via the liquid-phase method according to manufacturer's instructions.

A further test concerns cAMP. Description: Trial of α-MSH peptides on cAMP accumulation in C. albicans. The format is cell-based. Particulars: 10^−6M; for cAMP content of C. albicans: 3 minutes at 37° C., permeabilized yeast; for increase in cAMP compared with forskolin: equimolar. As to the method: The reaction was stopped after 3 minutes by the addition of ice cold ethanol. cAMP was measured in duplicate using a commercial enzyme immunoassay (EIA) kit (Amersham, United Kingdom) after extraction via the liquid-phase method according to manufacturer's instructions. The effect of forskolin (10^−6M) on C. albicans colony formation was determined using the same procedures as for α-MSH peptides.

The subject of the next test is S. aureus (ATCC 29213). Description: Trial of melanocortin peptides on S. aureus viability (colony formation). Particulars: peptide 10^−15 to 10^−4M, 2 hours at 37° C., compared to controls. The format is cell-based. The procedure: S. aureus (ATCC 29213) and C. albicans (clinical isolate) were obtained from the collection of the Department of Microbiology, Ospedale Maggiore di Milano. C. albicans were maintained on Sabouraud'[…] periodically transferred to Sabouraud's agar plates and incubated for 48 hours at 28° C. To prepare stationary growth phase yeast, a colony was taken from the agar plate and transferred into 30 ml Sabouraud-dextrose broth and incubated for 72 hours at 32° C. Cells were centrifuged at 1000×g for 10 minutes and the pellet was washed twice with distilled water. Cells were counted and suspended in Hank's balanced salt solution (“HBSS”) to the desired concentration. Viability, determined by the exclusion of 0.01% methylene blue, remained >98%. […] Cells were then washed in cold distilled water and diluted with HBSS to a concentration of 100 organisms/ml. One ml aliquots were dispensed on blood agar plates and incubated for 24 hours at 37° C. Organism viability was estimated from the number of colonies formed.

For test [2], the system named is C. albicans killing by human neutrophils. Put plainly: Trial of α-MSH peptides on C. albicans killing by human neutrophils. The format is cell-based. To be noted: 2 hours at 37° C., vs medium alone. As to the method: Venous blood (20 ml) from healthy volunteers was anticoagulated with heparin. Neutrophils were isolated using dextran sedimentation and Ficoll-Hypaque (Sigma Chemical Co., St. Louis, Mo., USA) centrifugation. Erythrocytes were lysed via hypotonic shock. Neutrophils represented at least 97% of the cell suspension. Cell viability, estimated by trypan blue exclusion, was >98%. Neutrophils were suspended to final concentration in HBSS. […] After incubation, the culture tubes were placed on ice to stop growth and extracellular organisms were washed twice with centrifugation at 1000×g at 4° C. A 2.5% sodium desoxycholate solution was added to the suspension and the tubes were shaken for 5 min. Cold distilled water was added to obtain a suspension of 10^6 cells/ml. Two 1/100 serial dilution in HBSS were made to obtain a final suspension of 100 cells/ml. Aliquots of 1 ml were dispensed on blood agar plates and incubated for 48 hours at 37° C. Colony forming units (“CFU”) were counted at the end of the incubation period. Experiments were run in triplicate and repeated using blood from 5 different donors.

The next test deals with S. aureus. Put plainly: Influence on urokinase-induced growth enhancement of S. aureus. The format is cell-based. To be noted: peptide 10^−6M, urokinase 500 U, 4 hours at 37° C.; p<0.001 vs urokinase alone. An excerpt:
In experiments on S. aureus we determined the influence of α-MSH on urokinase-induced growth-enhancement. Hart, D. A., Loule, T., Krulikl, W., Reno, C., Staphylococcus Aureus Strains Differ in Their in Vitro Responsiveness to Human Urokinase: Evidence That Methicillin-resistant Strains Are Predominantly Nonresponsive to the Growth-enhancing Effects of Urokinase, Can. J. Microbiol. 42, 1024-31 (1966). […] Appropriate dilutions of S. aureus were dispensed on agar plates and colonies counted after 24 hours incubation at 37° C.

The subject of the next test is HIV-1. Particulars: acutely and chronically infected monocytes; cited from earlier work.
For test [3] the following is noted: vs α-MSH; cited from earlier work.

“Also recorded” adds a separate entry of the source.

Consider “ACTH (1-39): adrenocorticotropic hormone (1-39), melanocortin peptide (SYSMEHFRWGKPVGKKRRPVKVYPNGAEDESAEAFPLEF; Corticotropin; UniProt P01189 138-176, looked up) [reference compound]”, for which the “relative potency in reducing C. albicans viability” value in test [1] (10^−6M) is recorded as “did not reduce C. albicans viability”. In addition, the “reduction of C. albicans CFU at higher concentrations” value in test [1] was “ineffective”.

Consider “ACTH (18-39): ACTH fragment (18-39) (CLIP) [reference compound]”, for which the “relative potency in reducing C. albicans viability” value in test [1] (10^−6M) was “did not reduce C. albicans viability”. Further, the “reduction of C. albicans CFU at higher concentrations” value in test [1] is “ineffective”.

For the substance “HFRWGKPV (Ac-HFRWGKPV-NH2) [α-MSH (6-13)]”, the “relative potency in reducing C. albicans viability” value in test [1] (10^−6M) is reported as “most effective”.

As to “KPV (Ac-Lys-Pro-Val-NH2) [α-MSH (11-13)]”, in the test with cAMP, the “cAMP content of C. albicans” value is “enhanced cAMP content in the yeast” and the “increase in cAMP compared with forskolin” value is “same order of magnitude as that induced by equimolar forskolin”. Moreover, in the test on S. aureus (ATCC 29213), the “S. aureus colony formation (CFU)” value is reported as “significantly decreased S. aureus colony forming units; also recorded: inhibited S. aureus colony formation”. Also, in test [2], the “killing of C. albicans by human neutrophils” value is reported as “enhanced killing of C. albicans by human neutrophils”. For the same substance, the “relative potency in reducing C. albicans viability” value in test [1] (10^−6M) is “most effective”. Besides, in test [1], the “C. albicans colony forming units (CFU)” value is recorded as “significantly decreased C. albicans colony forming units; also recorded: greatly reduced”. The “urokinase-enhanced S. aureus colony formation” value with S. aureus is on record as “significantly inhibited this urokinase-enhancing effect; also recorded: significantly inhibited the enhancing effect of urokinase”.

With MEHFRWG (Ac-MEHFRWG-NH2) [α-MSH (4-10)], the “inhibition of C. albicans CFU” value in test [1] (10^−6M) is reported as “approximately 50%”.

On to “NH2-Lys-Pro-Val-AcCys-CysAc-Val-Pro-Lys-NH2 [KPV dimer]”, for which the “S. aureus colony formation (CFU)” value with S. aureus (ATCC 29213) is given as “significantly decreased S. aureus colony forming units; also recorded: inhibited S. aureus colony formation”. In addition, the “effectiveness against microbes compared with α-MSH (11-13)” value in test [1] (S. aureus and C. albicans) is “at least as effective as α-MSH (11-13) against microbes”. In addition, in test [1], the “C. albicans colony forming units (CFU)” value was “significantly decreased C. albicans colony forming units; also recorded: inhibited C. albicans colony formation”.

As to SYSMEHFRWGKPV [α-MSH (1-13)], in the test with cAMP, the “cAMP content of C. albicans” value is listed as “enhanced cAMP content in the yeast” and the “increase in cAMP compared with forskolin” value is “same order of magnitude as that induced by equimolar forskolin”. In the test on S. aureus (ATCC 29213), the “S. aureus colony formation (CFU)” value was “significantly decreased S. aureus colony forming units; also recorded: inhibited S. aureus colony formation”. Moreover, in test [2], the “killing of C. albicans by human neutrophils” value is reported as “enhanced killing of C. albicans by human neutrophils”. Besides, the “C. albicans colony forming units (CFU)” value in test [1] is recorded as “significantly decreased C. albicans colony forming units; also recorded: greatly reduced”. Besides, in the test with HIV-1, the HIV-1 replication entry is “inhibits HIV-1 replication in acutely and chronically infected monocytes”. In addition, the “urokinase-enhanced S. aureus colony formation” value with S. aureus is listed as “significantly inhibited this urokinase-enhancing effect; also recorded: significantly inhibited the enhancing effect of urokinase”.

With [Nle^4,D-Phe^7]-α-MSH, the “potency in reducing fever relative to the parent peptide” value in test [3] was “approximately 10 times”.

The values above are taken from US6887846B2, “Antimicrobial amino acid sequences derived from alpha-melanocyte-stimulating hormone” (priority 1999, dated 2005).
